# Measured values taken from patent US8222420B2, “Nitrogen-containing compounds and harmful organism control agents” (Nippon Soda Co., Ltd., priority 2009, dated 2012).
# What was measured:
# [1] = system: Tetranychus urticae resistant to organic phosphorous agents; test: Efficacy against Tetranychus urticae (spray on kidney bean plants); assay type: in vivo; conditions: 500 ppm wettable powder sprayed on kidney bean plants with female adults; 25° C., humidity 65%; 3 days later
# Text: After inoculating the first true leaves of kidney bean plants planted in a no. 3 pot for which 7 to 10 days had elapsed since germination with 17 female adult Tetranychus urticae resistant to organic phosphorous agents, a chemical liquid diluted with water to a compound concentration of 500 ppm was sprayed onto the kidney bean plants in accordance with the formula of the wettable powder indicated in the aforementioned Preparation Example 1. The kidney bean plants were placed in a constant temperature chamber at a temperature of 25° C. and humidity of 65% and insect mortality rate was investigated 3 days later. The test was repeated twice.
# [2] = system: Aphis gossypii; test: Efficacy against Aphis gossypii (spray on infested cucumber plants); assay type: in vivo; conditions: 500 ppm emulsion sprayed on cucumber plants infested with nymphs; 25° C., humidity 65%; 5 days later
# Text: Cucumber plants planted in a no. 3 pot for which 10 days had elapsed since germination were inoculated with adult Aphis gossypii. The adult insects were removed after 1 day, and a chemical liquid diluted with water to a compound concentration of 500 ppm was sprayed onto the cucumber plants infested with nymphs laid by the adults in accordance with the emulsion formula indicated in the aforementioned Preparation Example 2. The cucumber plants were placed in a constant temperature chamber at a temperature of 25° C. and humidity of 65% and insect viability was investigated 5 days later followed by determination of insect mortality rate. The test was repeated twice.
Structure (SMILES),insect mortality rate [1],insect mortality rate [2]
Cc1cc(Cl)ccc1N=CN(C)C [chlordimeform],40%,
Cc1nc(N(C)C)nc(OC(=O)N(C)C)c1C [pirimicarb],,9%
